{"source": "patent US20070298135A1", "about": "“TOPICAL HERBAL FORMULATIONS” (BIOBOTANIC CORP., priority 2006, published 2007)", "origin": "cited, not measured here"}
{"smiles": "C[C@@H]1CC[C@@]2(OC1)O[C@H]1C[C@H]3[C@@H]4CC=C5C[C@@H](O[C@@H]6O[C@H](CO)[C@@H](O[C@@H]7O[C@@H](C)[C@H](O)[C@@H](O)[C@H]7O)[C@H](O)[C@H]6O[C@@H]6O[C@@H](C)[C@H](O)[C@@H](O)[C@H]6O)CC[C@]5(C)[C@H]4CC[C@]3(C)[C@H]1[C@@H]2C", "note": "[Doscin]", "values": [{"measurement": "solubility in lipophilic organic solvent", "setting": "lipophilic organic solvent", "result": "insoluble"}, {"measurement": "solubility in polar liquid media", "setting": "methanol, ethanol, n-butanol, water, hydrate methanol and ethanol, soluble = at least 0.1 mg/ml (w/v) at about 25° C.", "result": "soluble"}]}
